As usually defined, the EC50 is the midpoint of the concentration-response curve.

The source of these data is patent US12227500B2, “Substituted pyrrolo[2,3-b]pyridines for suppressing toxic endoplasmic reticulum stress” (THE TRUSTEES OF COLUMBIA UNIVERSITY IN THE CITY OF NEW YORK, priority 2018, dated 2025).

One assay addresses HGK/MAP4K4 (Homo sapiens, UniProt O95819). As to the kind of experiment: Radiolabeled ATP kinase assay (Reaction Biology Corp.), HGK. Type of assay: biochemical. The arrangement: purchased Reaction Biology Corp. Conditions: 10 μM ATP, read-out: % Enzyme Activity (relative to DMSO controls), HGK/MAP4K4, Data 1. On the procedure:
(§1) Meanwhile, the same analogs were analyzed in a radiolabeled ATP assay (10 μM ATP; Reaction Biology Corp.) to compare the extent to which they could inhibit the activity of HGK, MLK1, or MLK3 in a cell-free environment (Table S3 and S4).

Assay [1] concerns human ES motor neurons carrying the ALS-causing SOD1^A4V mutation. Kind of assay: cells. Type of assay: cell-based. Conditions: Homo sapiens, Neuron, 72 h, 72 h. The procedure:
Next, survival assays were performed with all the analogs at once to generate a low-variability dataset. All compounds were evaluated at concentrations ranging from 0.1-3.0 μM (five-point dilution) in three technical replicates and two biological replicates.

The target of assay [2] is T1, panel of 60 human kinases (Homo sapiens, UniProt Q92630).
T1 construct: purchased Reaction Biology Corp
T1 sequence (Q92630 1-601): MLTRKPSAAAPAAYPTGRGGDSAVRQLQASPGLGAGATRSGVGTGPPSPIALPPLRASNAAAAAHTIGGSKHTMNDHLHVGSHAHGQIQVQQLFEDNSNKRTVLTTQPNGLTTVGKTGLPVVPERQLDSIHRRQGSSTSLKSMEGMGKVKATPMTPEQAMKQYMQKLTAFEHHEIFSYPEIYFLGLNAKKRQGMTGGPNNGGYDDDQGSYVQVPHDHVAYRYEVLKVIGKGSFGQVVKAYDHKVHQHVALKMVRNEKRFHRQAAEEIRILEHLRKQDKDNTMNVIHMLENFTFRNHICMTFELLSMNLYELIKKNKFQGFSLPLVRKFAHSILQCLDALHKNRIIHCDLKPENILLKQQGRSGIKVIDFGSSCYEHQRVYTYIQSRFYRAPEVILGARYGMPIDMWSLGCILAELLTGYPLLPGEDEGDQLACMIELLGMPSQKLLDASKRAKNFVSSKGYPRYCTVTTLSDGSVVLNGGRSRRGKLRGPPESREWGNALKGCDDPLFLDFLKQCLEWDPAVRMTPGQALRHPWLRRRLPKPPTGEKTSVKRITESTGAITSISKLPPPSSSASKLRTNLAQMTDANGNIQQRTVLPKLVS
As to the kind of experiment: Radiolabeled ATP kinase assay, panel of 60 kinases (Table S5). Type of assay: biochemical. Conditions: DYRK2; 0.1 μM; 10 μM ATP; read-out: % Enzyme Activity (relative to DSMO controls). On the procedure:
(§2) To better understand the biologically relevant targets of compound 1 and its analogs, a second round of cell-free kinase assays was performed. In this expanded assay, we selected ten analogs ranging from moderately to very strongly protective in the CPA assay. These analogs were evaluated for their ability to inhibit a selection of 60 kinases at 0.1 μM and 0.5 μM. […] RNAseq data were used to confirm the expression of each kinase in ES MNs (see Example 12).
(§3) RNAseq data were used to confirm the expression of each kinase in ES motor neurons (see Example 12).

Assay [3] has as its target T2, panel of 60 human kinases (Homo sapiens, UniProt Q9UKE5).
T2 construct: purchased Reaction Biology Corp
The assay is described as above. Conditions: TNIK; 0.1 μM; 10 μM ATP; read-out: % Enzyme Activity (relative to DSMO controls). The class given is biochemical. The procedure:
as §2, §3

Assay [4] deals with T3, panel of 60 human kinases (Homo sapiens, UniProt P11802).
T3 construct: purchased Reaction Biology Corp
T3 sequence (P11802 whole entry): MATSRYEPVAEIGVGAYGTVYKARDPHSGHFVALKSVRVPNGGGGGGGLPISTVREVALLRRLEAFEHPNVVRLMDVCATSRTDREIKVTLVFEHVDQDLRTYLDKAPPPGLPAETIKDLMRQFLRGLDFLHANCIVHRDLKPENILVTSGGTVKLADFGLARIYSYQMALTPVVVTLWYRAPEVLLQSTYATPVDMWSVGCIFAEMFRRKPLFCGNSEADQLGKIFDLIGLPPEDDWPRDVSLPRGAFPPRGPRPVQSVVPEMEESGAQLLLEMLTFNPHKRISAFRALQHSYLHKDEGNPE
The description is as above. Conditions: 0.1 μM, 10 μM ATP, read-out: % Enzyme Activity (relative to DSMO controls). Type of assay: biochemical. The procedure: as §2, §3

Assay [5] addresses T4, panel of 60 human kinases (Homo sapiens, UniProt P50750).
T4 construct: purchased Reaction Biology Corp
The description is as above. The class given is biochemical. The settings on record: 0.1 μM, 10 μM ATP, read-out: % Enzyme Activity (relative to DSMO controls). The procedure: as §2, §3

The target of assay [6] is T5, panel of 60 human kinases (Homo sapiens, UniProt Q9UM73).
T5 construct: purchased Reaction Biology Corp
Described as above. Type of assay: biochemical. The settings on record: ALK; 0.1 μM; 10 μM ATP; read-out: % Enzyme Activity (relative to DSMO controls). On the procedure:
as §2, §3

Assay [7] concerns the target T6, panel of 60 human kinases (Homo sapiens, UniProt Q00537).
T6 construct: purchased Reaction Biology Corp
Described as above. Conditions: CDK17/cyclin Y (PCTK2); 0.1 μM; 10 μM ATP; read-out: % Enzyme Activity (relative to DSMO controls). Type of assay: biochemical. On the procedure:
as §2, §3

Assay [8] concerns the target T7, panel of 60 human kinases (Homo sapiens, UniProt P49841).
T7 construct: purchased Reaction Biology Corp
Described as above. Type of assay: biochemical. The settings on record: GSK3b; 0.1 μM; 10 μM ATP; read-out: % Enzyme Activity (relative to DSMO controls). The procedure: as §2, §3

Assay [9] has as its target T8, panel of 60 human kinases (Homo sapiens, UniProt Q00536).
T8 construct: purchased Reaction Biology Corp
The assay is described as above. The class given is biochemical. Conditions: CDK16/cyclin Y (PCTAIRE); 0.1 μM; 10 μM ATP; read-out: % Enzyme Activity (relative to DSMO controls). The procedure: as §2, §3

Assay [10] deals with T9, panel of 60 human kinases (Homo sapiens, UniProt P49840).
T9 construct: purchased Reaction Biology Corp
T9 sequence (P49840 whole entry): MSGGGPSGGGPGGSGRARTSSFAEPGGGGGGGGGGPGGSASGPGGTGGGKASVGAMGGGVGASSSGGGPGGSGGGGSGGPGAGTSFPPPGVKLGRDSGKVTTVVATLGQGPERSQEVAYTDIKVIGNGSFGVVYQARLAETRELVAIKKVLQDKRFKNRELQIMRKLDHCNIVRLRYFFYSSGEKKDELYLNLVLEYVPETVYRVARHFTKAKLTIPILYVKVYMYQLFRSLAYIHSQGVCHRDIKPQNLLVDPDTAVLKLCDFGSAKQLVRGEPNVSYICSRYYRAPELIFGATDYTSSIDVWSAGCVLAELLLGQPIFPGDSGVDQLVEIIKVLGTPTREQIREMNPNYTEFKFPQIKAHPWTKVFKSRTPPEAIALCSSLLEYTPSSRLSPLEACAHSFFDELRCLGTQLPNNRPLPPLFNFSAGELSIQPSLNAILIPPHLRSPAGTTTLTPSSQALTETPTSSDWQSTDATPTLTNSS
The description is as above. Conditions: GSK3a; 0.1 μM; 10 μM ATP; read-out: % Enzyme Activity (relative to DSMO controls). Type of assay: biochemical. The procedure:
as §2, §3

Assay [11] concerns the target T10, panel of 60 human kinases (Homo sapiens, UniProt O14965).
T10 construct: purchased Reaction Biology Corp
T10 sequence (O14965 1-403): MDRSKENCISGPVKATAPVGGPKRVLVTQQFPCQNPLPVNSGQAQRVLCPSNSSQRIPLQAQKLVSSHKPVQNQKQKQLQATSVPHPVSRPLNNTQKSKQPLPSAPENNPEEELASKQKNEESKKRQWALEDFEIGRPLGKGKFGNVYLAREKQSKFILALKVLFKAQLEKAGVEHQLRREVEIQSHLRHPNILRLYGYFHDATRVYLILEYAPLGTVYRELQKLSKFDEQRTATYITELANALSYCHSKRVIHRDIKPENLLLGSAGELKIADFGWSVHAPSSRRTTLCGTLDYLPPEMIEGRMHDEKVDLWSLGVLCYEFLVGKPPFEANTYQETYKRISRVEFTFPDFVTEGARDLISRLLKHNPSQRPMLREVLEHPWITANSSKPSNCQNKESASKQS
The description is as above. Type of assay: biochemical. Conditions: Aurora A; 0.1 μM; 10 μM ATP; read-out: % Enzyme Activity (relative to DSMO controls). The procedure: as §2, §3

A further assay deals with T11, MLK3/MAP3K11 (Homo sapiens, UniProt Q16584).
T11 construct: purchased Reaction Biology Corp
T11 sequence (Q16584 whole entry): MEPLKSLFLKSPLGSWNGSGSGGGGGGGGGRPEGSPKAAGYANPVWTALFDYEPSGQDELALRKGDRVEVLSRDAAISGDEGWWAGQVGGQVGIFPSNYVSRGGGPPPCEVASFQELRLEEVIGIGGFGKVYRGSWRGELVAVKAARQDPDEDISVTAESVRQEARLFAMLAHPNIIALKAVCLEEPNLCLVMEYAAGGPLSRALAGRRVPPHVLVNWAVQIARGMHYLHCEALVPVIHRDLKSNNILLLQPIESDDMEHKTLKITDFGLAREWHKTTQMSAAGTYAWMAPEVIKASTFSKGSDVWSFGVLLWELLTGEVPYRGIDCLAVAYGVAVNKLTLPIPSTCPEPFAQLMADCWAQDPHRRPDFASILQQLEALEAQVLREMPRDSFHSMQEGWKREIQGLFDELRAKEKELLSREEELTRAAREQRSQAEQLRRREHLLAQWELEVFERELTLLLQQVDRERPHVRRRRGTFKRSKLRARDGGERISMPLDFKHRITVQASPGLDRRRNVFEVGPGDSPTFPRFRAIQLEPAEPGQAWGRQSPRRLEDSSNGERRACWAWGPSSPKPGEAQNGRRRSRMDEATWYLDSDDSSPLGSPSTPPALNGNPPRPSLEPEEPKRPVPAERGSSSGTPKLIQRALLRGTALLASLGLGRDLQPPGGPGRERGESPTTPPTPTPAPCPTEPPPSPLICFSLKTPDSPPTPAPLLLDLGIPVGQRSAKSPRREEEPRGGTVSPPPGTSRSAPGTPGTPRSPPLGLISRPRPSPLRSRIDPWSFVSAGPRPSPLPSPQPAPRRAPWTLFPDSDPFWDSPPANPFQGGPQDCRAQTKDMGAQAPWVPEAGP
As to the kind of experiment: Radiolabeled ATP kinase assay (Reaction Biology Corp.), MLK3. The class given is biochemical. The settings on record: [Cmpd] 0.1 μM; 10 μM ATP. On the procedure: as §1

Where two headings read alike, the source gives them in different places.

T4 sequence (P50750 whole entry): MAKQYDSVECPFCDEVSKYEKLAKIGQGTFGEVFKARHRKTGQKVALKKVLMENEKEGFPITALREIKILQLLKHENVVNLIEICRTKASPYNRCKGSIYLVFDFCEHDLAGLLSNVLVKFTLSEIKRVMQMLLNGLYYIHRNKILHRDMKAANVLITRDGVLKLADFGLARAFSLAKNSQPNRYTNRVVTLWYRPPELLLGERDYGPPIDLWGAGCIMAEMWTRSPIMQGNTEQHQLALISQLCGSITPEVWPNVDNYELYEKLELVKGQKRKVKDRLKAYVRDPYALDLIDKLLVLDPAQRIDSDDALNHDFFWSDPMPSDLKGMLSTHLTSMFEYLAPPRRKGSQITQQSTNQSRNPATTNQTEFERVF
HGK/MAP4K4, sequence (O95819 whole entry): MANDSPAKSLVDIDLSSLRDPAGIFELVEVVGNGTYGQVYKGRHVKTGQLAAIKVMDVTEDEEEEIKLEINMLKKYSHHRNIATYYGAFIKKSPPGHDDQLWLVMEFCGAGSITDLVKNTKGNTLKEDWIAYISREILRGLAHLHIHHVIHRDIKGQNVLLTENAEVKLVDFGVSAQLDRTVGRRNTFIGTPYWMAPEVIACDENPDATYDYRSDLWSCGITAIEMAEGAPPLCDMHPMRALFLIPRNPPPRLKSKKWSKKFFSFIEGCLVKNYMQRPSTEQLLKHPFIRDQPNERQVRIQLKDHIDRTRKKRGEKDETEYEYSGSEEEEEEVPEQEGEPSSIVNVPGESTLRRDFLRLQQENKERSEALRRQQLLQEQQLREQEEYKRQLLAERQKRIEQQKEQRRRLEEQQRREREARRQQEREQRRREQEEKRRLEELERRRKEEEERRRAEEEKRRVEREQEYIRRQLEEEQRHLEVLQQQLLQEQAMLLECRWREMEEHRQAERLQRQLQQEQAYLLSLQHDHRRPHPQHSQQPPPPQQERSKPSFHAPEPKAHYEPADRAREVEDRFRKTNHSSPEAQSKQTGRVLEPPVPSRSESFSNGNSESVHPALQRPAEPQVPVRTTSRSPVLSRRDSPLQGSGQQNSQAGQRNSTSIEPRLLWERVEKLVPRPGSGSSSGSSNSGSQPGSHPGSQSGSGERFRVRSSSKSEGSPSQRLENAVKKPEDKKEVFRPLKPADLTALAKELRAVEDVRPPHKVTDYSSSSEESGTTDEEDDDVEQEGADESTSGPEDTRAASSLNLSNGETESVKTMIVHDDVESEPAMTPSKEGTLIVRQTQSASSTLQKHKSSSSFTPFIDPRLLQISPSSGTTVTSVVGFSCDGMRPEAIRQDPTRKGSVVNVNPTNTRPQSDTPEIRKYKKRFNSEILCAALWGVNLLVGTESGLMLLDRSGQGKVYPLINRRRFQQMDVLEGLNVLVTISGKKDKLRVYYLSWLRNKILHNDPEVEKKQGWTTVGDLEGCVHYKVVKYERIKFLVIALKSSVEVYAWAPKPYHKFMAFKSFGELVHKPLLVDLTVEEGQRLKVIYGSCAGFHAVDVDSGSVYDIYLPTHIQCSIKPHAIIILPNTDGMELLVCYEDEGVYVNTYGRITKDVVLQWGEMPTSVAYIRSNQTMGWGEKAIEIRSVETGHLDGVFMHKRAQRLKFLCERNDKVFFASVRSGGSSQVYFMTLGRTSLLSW
T8 sequence (Q00536 whole entry): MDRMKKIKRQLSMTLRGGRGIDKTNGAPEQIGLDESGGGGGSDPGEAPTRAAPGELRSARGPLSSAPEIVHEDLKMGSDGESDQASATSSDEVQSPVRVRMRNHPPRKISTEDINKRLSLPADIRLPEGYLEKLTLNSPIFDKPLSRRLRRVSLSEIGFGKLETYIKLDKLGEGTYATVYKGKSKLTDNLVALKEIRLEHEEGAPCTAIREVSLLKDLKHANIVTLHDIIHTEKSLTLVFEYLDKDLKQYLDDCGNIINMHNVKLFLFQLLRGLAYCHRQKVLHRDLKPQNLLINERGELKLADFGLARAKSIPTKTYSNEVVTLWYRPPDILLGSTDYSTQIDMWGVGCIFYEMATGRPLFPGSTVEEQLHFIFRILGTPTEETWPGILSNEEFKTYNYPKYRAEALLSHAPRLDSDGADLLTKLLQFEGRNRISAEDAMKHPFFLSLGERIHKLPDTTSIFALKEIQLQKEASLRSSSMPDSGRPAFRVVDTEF
T7 sequence (P49841 whole entry): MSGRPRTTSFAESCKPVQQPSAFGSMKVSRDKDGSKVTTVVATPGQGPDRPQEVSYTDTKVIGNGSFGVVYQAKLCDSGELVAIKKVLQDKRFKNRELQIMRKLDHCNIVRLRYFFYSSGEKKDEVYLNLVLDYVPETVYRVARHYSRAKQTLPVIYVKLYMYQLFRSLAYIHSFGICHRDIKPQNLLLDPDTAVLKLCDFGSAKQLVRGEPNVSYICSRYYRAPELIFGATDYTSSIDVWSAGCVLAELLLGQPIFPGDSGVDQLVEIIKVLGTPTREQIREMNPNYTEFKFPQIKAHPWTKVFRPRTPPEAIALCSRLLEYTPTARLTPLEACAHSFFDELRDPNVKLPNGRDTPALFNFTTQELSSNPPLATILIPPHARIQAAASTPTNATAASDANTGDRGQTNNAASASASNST
T6 sequence (Q00537 whole entry): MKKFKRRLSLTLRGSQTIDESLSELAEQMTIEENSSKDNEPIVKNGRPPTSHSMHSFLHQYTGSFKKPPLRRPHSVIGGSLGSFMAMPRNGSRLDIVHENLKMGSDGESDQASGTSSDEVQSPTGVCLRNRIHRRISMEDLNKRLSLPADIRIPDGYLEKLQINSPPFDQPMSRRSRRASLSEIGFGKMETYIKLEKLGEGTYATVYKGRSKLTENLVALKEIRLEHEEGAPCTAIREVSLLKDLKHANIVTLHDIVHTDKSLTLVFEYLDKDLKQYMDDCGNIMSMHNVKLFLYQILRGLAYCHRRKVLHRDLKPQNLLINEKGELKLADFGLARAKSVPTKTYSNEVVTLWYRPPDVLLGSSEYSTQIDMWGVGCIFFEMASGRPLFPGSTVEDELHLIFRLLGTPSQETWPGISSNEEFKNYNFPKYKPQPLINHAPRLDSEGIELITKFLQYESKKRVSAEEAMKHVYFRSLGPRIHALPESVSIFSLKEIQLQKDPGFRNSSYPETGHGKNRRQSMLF

With `CN1CCN(Cc2ccc(-c3cnc4[nH]cc(-c5ccccc5Cl)c4c3)cc2)CC1` [Compound 7as, 3-(2-Chlorophenyl)-5-(4-((4-methylpiperazin-1-yl)methyl)phenyl)-1H-pyrrolo[2,3-b]pyridine], at HGK/MAP4K4 ([Cmpd] 0.025 μM), the remaining activity at 0.025 µM is 17.6%. The remaining activity at 0.1 µM at HGK/MAP4K4 ([Cmpd] 0.1 μM) turned out to be 3.61%; in [2], 18.2%; in assay [3], 0.51%; in assay [4] (CDK4/cyclin D1) it was 31.9%; in [4] (CDK4/cyclin D3) it was 39.7%; in assay [5] (CDK9/cyclin K), 96.6%. In addition, the remaining activity at 0.1 µM in assay [5] (CDK9/cyclin T1) amounted to 82.3%; in assay [5] (CDK9/cyclin T2), 74.2%; in [6], 70.5%; in assay [7], 44.1%; in assay [8], 98.9%; in assay [9] it was 75.2%. The remaining activity at 0.1 µM amounted to 96% in assay [10] and 81.1% in assay [11]. Besides, the EC50 in assay [1] (CPA 33 μM, read-out: EC50) turned out to be 329 nM. The viability at 1 µM in [1] (CPA (33 μM) + compound (1 μM), read-out: Motor Neuron Survival, % untreated) was 80.8%. Besides, the Emax in assay [1] (CPA 33 μM, read-out: Emax (MN survival % untreated)) came to 80.8%. At MLK3/MAP3K11, the “% Enzyme Activity Remaining (relative to DMSO controls), MLK3/MAP3K11, Data 1” value was 49.99%. The “% Enzyme Activity Remaining (relative to DMSO controls), MLK3/MAP3K11, Data 2” value on MLK3/MAP3K11 worked out at 51.55%.
